According to PubChem BioAssay (NCI):
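Following 48 hours of exposure in 96-well plates, responses at five concentrations were used to interpolate endpoints linearly. GI50 = concentration required for 50% inhibition of growth. The concentration for full growth arrest is given as TGI.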

Tests used:
Test in all cases: inhibition of tumour cell growth, NCI panel, 48 h
A498 renal = tested on: A498 renal
SK-MEL-28 melanoma = tested on: SK-MEL-28 melanoma
UACC-62 melanoma = tested on: UACC-62 melanoma
HCC-2998 colon = tested on: HCC-2998 colon
HS 578T breast = tested on: HS 578T breast
HT29 colon = tested on: HT29 colon
MALME-3M melanoma = tested on: MALME-3M melanoma
LOX IMVI melanoma = tested on: LOX IMVI melanoma
PC-3 prostate = tested on: PC-3 prostate
K-562 leukemia = tested on: K-562 leukemia
MDA-MB-231 breast = tested on: MDA-MB-231 breast
HOP-92 NSCLC = tested on: HOP-92 NSCLC
SK-MEL-5 melanoma = tested on: SK-MEL-5 melanoma
SR leukemia = tested on: SR leukemia
A549 NSCLC = tested on: A549 NSCLC
OVCAR-8 ovarian = tested on: OVCAR-8 ovarian
RXF 393 renal = tested on: RXF 393 renal
NCI/ADR-RES ovarian = tested on: NCI/ADR-RES ovarian
SF-295 CNS = tested on: SF-295 CNS
SNB-19 CNS = tested on: SNB-19 CNS
NCI-H226 lung = tested on: NCI-H226 lung
CCRF-CEM leukemia = tested on: CCRF-CEM leukemia
EKVX NSCLC = tested on: EKVX NSCLC
COLO 205 colon = tested on: COLO 205 colon
MOLT-4 leukemia = tested on: MOLT-4 leukemia
BT-549 breast = tested on: BT-549 breast
HOP-62 NSCLC = tested on: HOP-62 NSCLC
HCT-116 colon = tested on: HCT-116 colon
KM12 colon = tested on: KM12 colon

## COc1ccc(/C=C(\C#N)n2nnc3c(F)cccc32)cc1
A498 renal
  GI50: 0.22 µM
  TGI: 1.04 µM
SK-MEL-28 melanoma
  GI50: 1.28 µM
  TGI: > 100 µM
UACC-62 melanoma
  GI50: 0.303 µM
  TGI: 15 µM
HCC-2998 colon
  GI50: 1.16 µM
  TGI: > 47 µM
HS 578T breast
  GI50: 0.309 µM
  TGI: 1.98 µM
HT29 colon
  GI50: 0.286 µM
MALME-3M melanoma
  GI50: 0.517 µM
  TGI: > 100 µM
LOX IMVI melanoma
  GI50: 0.493 µM
  TGI: 16.6 µM
PC-3 prostate
  GI50: 0.381 µM
  TGI: > 100 µM
K-562 leukemia
  GI50: 0.0645 µM
  TGI: > 100 µM
MDA-MB-231 breast
  GI50: 0.551 µM
  TGI: 3.68 µM
HOP-92 NSCLC
  GI50: 0.293 µM
  TGI: 42.9 µM
SK-MEL-5 melanoma
  GI50: 0.47 µM
  TGI: > 33.7 µM
SR leukemia
  GI50: 0.161 µM
  TGI: > 100 µM
A549 NSCLC
  GI50: 0.78 µM
  TGI: > 100 µM
OVCAR-8 ovarian
  GI50: 0.532 µM
  TGI: > 34.5 µM
RXF 393 renal
  GI50: 0.182 µM
  TGI: 0.572 µM
NCI/ADR-RES ovarian
  GI50: 0.181 µM
  TGI: 4.52 µM
SF-295 CNS
  GI50: 0.275 µM
  TGI: 2.72 µM
SNB-19 CNS
  GI50: 0.412 µM
  TGI: 18.2 µM
NCI-H226 lung
  GI50: 1.98 µM
  TGI: > 100 µM
CCRF-CEM leukemia
  GI50: 0.311 µM
  TGI: > 100 µM
EKVX NSCLC
  GI50: 0.501 µM
  TGI: > 100 µM
COLO 205 colon
  GI50: 0.38 µM
  TGI: > 100 µM
MOLT-4 leukemia
  GI50: 0.456 µM
  TGI: > 100 µM
BT-549 breast
  GI50: 0.433 µM
  TGI: > 34.6 µM
HOP-62 NSCLC
  GI50: 0.621 µM
  TGI: > 83.1 µM
HCT-116 colon
  GI50: 0.363 µM
  TGI: > 31.6 µM
KM12 colon
  GI50: 0.39 µM
  TGI: > 100 µM
